Experimental data from patent US8273543B2, “Regulation of BACE degradation” (The General Hospital Corporation, priority 2006, dated 2012).
Entries after “also recorded” stand apart in the source; their conditions may differ. Peptide text beside a SMILES is read from it. * marks the point of attachment. Cbz = O=C(OCc1ccccc1)*; CH2F = FC*

Tests used:
BACE [1] = details: variety of cell types, including primary neurons; cited from earlier work
BACE [2] = test: Induction of apoptosis, Western blot of BACE protein levels; type: cell-based, human; details: H4-APP751 cells
Method: (§1) H4 human neuroglioma cells expressing APP751 (H4-APP751) and APP-SWE (H4-APPSWE) were grown in DMEM containing 10% FBS, 200 μg/mL G418, 250 μg/mL zeocin, 2 mM L-glutamine, 100 U/ml penicillin, 100 μg/mL streptomycin. For the induction of apoptosis, we used staurosporine or etoposide (Calbiochem). For time-course experiments, cells were seeded at a density of 2×10^6 cells per 100 mm dish and treated with STS (1 μM) or etoposide (100 μg/mL). In order to inhibit caspase activation a sister plate of cells was pretreated with zVAD (100 μM, Calbiochem) for 1 hr before STS treatment. At different time points (0, 3, 6, 9, 12, and 24 hr), the cells were scraped, centrifuged, and then lysed in buffer containing 1% NP40. Western blot analysis was performed as previously described (Tesco et al., 2003). Densitometry analysis was performed on a Macintosh computer using the public domain NIH Image program (developed at the U.S. National Institutes of Health and available on the Internet at rsb.info.nih.gov/nih-image/) or using a Versadoc Imager and QuantityOne software (BioRad).

GGA3 [3] = test: GGA3 cleavage during apoptosis in H4 cells, Western blot with anti-GGA3 antibody; type: cell-based, human; details: for cleavage of full length GGA3: H4 cells, STS time course
Method: H4 cells were treated with staurosporine (STS) during time course experiments.
as §1

GGA3 [4] = test: Full length GGA3 in primary cortical neurons treated with STS, Western blot; type: cell-based; details: primary cortical neurons (PCN), STS for 12 hr
Method: FIG. 5b: rat brain samples from the experiment described in FIG. 7. […] FIG. 5c: H4 and primary cortical neurons (PCN) were treated with STS for 12 hr.

APP-C99 = APP-C99 levels during apoptosis, Western blot with WO2 antibody; type: cell-based, human; details: H4-APP751 cells, apoptosis induced by STS
Text: (§2) Gervais and colleagues (Gervais et al., 1999) proposed that caspase-mediated cleavage of APP at APPD720 was responsible for increased Aβ generation associated with apoptosis. […] The Aβ ELISA measured Aβ1-total using biotinylated 3D6, which specifically recognizes the aspartate in position 1 of Aβ, as a reporter antibody. […] Here, we investigated whether apoptosis-mediated increases in Aβ levels may be due to enhanced cleavage of APP by BACE, the protease responsible for β-secretase cleavage of APP (Vassar et al., 1999). For this purpose, we tested whether apoptosis/caspase activation leads to increased levels of APP-C99, the C-terminal fragment generated by β-secretase cleavage of APP. […]
(§3) H4 human neuroglioma cells expressing APP751 (H4-APP751) and APP-SWE (H4-APPSWE) were grown in DMEM containing 10% FBS, 200 μg/mL G418, 250 μg/mL zeocin, 2 mM L-glutamine, 100 U/ml penicillin, 100 μg/mL streptomycin. […] Densitometry analysis was performed on a Macintosh computer using the public domain NIH Image program (developed at the U.S. National Institutes of Health and available on the Internet at rsb.info.nih.gov/nih-image/) or using a Versadoc Imager and QuantityOne software (BioRad).

caspase 3 = test: Caspase 3 activation, Western blot with anti-caspase 3 active fragment antibody; type: cell-based, human; details: H4-APP751 cells, STS treatment
Text: as §2, §3

BACE mRNA = test: Northern blot analysis of BACE mRNA; type: cell-based, human; details: H4-APP751 cells, 6 hr of STS treatment
Method: Total RNA was extracted using TRIZOL (Invitrogen). Northern blot analysis was performed as previously described (Koh et al., 2001). Human cDNA of BACE was labeled with […] (PerkinElmer, Norwalk Conn.) using random hexanucleotide primers (Prime-a-gene labeling system; Promega Madison Wis.).

BACE [5] = test: Cycloheximide degradation time-course, BACE; type: cell-based, human; details: H4-APP751 cells, STS+CHX vs CHX (40 μg/ml) only
Method: (§4) H4-APP751 cells were treated with CHX (40 μg/ml) only or STS (1 μM)+CHX during a 30 hr time-course. Lysates from each time point were immunoblotted with the specific antibodies, anti-BACE, anti-TACE, and the anti-APP antibody […].

TACE and APP = test: Cycloheximide degradation time-course, TACE and APP; type: cell-based, human; details: H4-APP751 cells, STS+CHX vs CHX (40 μg/ml) only
Method: as §4

Aβ1-total = details: CHO cells, 6 hr treatment; cited from earlier work
[6] = tested on: ischemic and excitotoxic neuronal damage; details: intracerebroventricular injection before ischemia and immediately after reperfusion; cited from earlier work
BACE [7] = details: caspase inhibition; cited from earlier work
GGA3 [8] = test: In vitro translation and recombinant caspase 3 cleavage assay; type: biochemical, human; details: recombinant caspase 3
Method: The HA-GGA3 pcDNA4 plasmid was a generous gift from Dr. Waguri. GGA3 was in vitro translated (IVT) in the presence of [^35S]-labeled methionine using TNT Quick Coupled Transcription/Translation Systems as indicated by the manufacturer (Promega, Madison Wis.). 5 μL of IVT reaction were incubated with or without 200 ng of recombinant caspase 3 (Pharmingen, San Diego, Calif.) in caspase reaction buffer (sucrose 20%, NaCl 100 mM, HEPES (pH 7.4) 20 mM, CHAPS 0.1%, DTT 10 mM, EDTA 1 mM) at 37° for 2 hr. The reactions were separated by SDS-page (4-12% Bis-tricine gel with MES running buffer, Invitrogen Carlsbad, Calif.). The gel was fixed, dried and exposed to a phosphorimager screen. The images were acquired with a FX phosphorimager (Bio-Rad, Hercules Calif.). GGA3 in vitro translation was also performed in the presence of cold methionine. Then, 5 μL of IVT reaction were incubated with or without 200 ng of recombinant caspase 3 overnight at 37°. The reactions were separated by SDS-page. In order to better separate the bands generated by caspase 3 cleavage we used 12% Bis-tricine gel and MOPS running buffer (Invitrogen). Then, the proteins were transferred to PVDF membrane and WB analysis with anti-GGA3 antibody was performed.

Aβ40 = test: Secreted Aβ40 in conditioned media, sandwich ELISA; type: cell-based, human; details: H4-APP751 cells expressing GGA3DN
Method: Secreted Aβ40 was measured in the conditioned media using an Aβ40-specific sandwich ELISA (BioSource International, Camarillo, Calif.). Aβ concentration was normalized against the concentration of protein in the cell lysates.
H4 cells stably expressing wild-type APP-751 or APP containing the Swedish FAD mutation (APPSwe) were transfected with 200 nM siGGA3 (ID #36847, Ambion, Austin Tex.) or a 19 bp scrambled sequence was used as negative control for siRNA (Silencer Negative control #1 siRNA, Ambion) using oligofectamine following manufacturer's instructions (Invitrogen). 72 hr later, GGA3 levels were determined by WB analysis with anti-GGA3 antibody (Transduction Laboratories). At the same time point, a sister plate of the same cells was co-transfected with myc-tagged BACE plasmid and siGGA3 or siNeg. After 48 hr the media was replaced. Cells and media were collected after 72 hr following the co-transfection.

BACE [9] = test: Co-transfection of GGA3DN with myc-tagged BACE in H4-APP751 cells, BACE levels; type: cell-based, human
Text: To address this possibility we engineered a HA-tagged GGA3 N-terminal fragment 1-313 mimicking the N-terminal caspase-derived fragment generated by cleavage at D313 (GGA3DN). […] During apoptosis, however, caspase-mediated cleavage of GGA3 results not only in the production of GGA3DN but also the degradation of GGA3.

Molecule: Cl.N [NH4Cl]
- accumulation of endogenous and ectopically expressed BACE (BACE [1]): lead to accumulation

Molecule: CN[C@@H]1C[C@H]2O[C@@](C)([C@@H]1OC)n1c3ccccc3c3c4c(c5c6ccccc6n2c5c31)C(=O)NC4 [STS, staurosporine]
- increase in BACE protein levels (BACE [2]; 12 hr of STS treatment): ~6 fold
- increase in BACE protein levels (BACE [2]; 24 hr of STS treatment): ~9 fold
- cleavage of full length GGA3 (GGA3 [3]): cleaved into two major fragments
- cleavage of full length GGA3 (GGA3 [3]; listed as staurosporine): cleaved in two major fragments
- full length GGA3 (GGA3 [4]): decrease in full length GGA3
- levels of APP-C99 (APP-C99): increased levels of C99
- earliest time of caspase 3 activation (caspase 3): 6 h
- BACE mRNA levels (BACE mRNA): virtually undetectable
- degradation of BACE (BACE [5]): degradation of BACE was decreased
- degradation of TACE and APP (TACE and APP): unchanged
- Aβ1-total production compared to untreated cells (Aβ1-total): significantly increased

Molecule: CCN(CC)CCCC(C)Nc1ccnc2cc(Cl)ccc12 (centres unmarked) [chloroquine]
- accumulation of endogenous and ectopically expressed BACE (BACE [1]): lead to accumulation

Molecule: COc1cc([C@@H]2c3cc4c(cc3[C@@H](O[C@@H]3O[C@@H]5CO[C@@H](C)O[C@H]5[C@H](O)[C@H]3O)[C@H]3COC(=O)[C@H]23)OCO4)cc(OC)c1O [etoposide]
- BACE protein levels (BACE [2]; apoptosis induced by etoposide): increased BACE protein levels

Molecule: COC(=O)C[C@H](NC(=O)[C@H](C)NC(=O)[C@@H](NC(=O)OCc1ccccc1)C(C)C)C(=O)CF [z-VAD.FMK] (Cbz-Val-Ala-Asp(OMe)-CH2F)
- ischemic and excitotoxic neuronal damage [6]: significantly reduces

Molecule: COC(=O)CC[C@H](NC(=O)[C@H](CC(=O)OC)NC(=O)OCc1ccccc1)C(=O)N[C@H](C(=O)N[C@@H](CC(=O)OC)C(=O)CF)C(C)C [zDEVD.FMK]
- ischemic and excitotoxic neuronal damage [6]: significantly reduces

Molecule: CC(NC(=O)C(NC(=O)OCc1ccccc1)C(C)C)C(=O)NC(CC(=O)O)C(=O)CF (stereo not drawn) [zVAD] (Cbz-Val-Ala-Asp-CH2F; configuration not given here)
- BACE accumulation during STS or etoposide treatment (BACE [2]; caspase inhibition): prevented BACE accumulation
- cleavage of GGA3 during apoptosis (GGA3 [3]; apoptotic H4 cells, caspase inhibition): inhibited; also recorded: prevented
- increase in Aβ production during apoptosis (BACE [7]): prevent
- stabilization of BACE during apoptosis (BACE [7]): prevent the stabilization of BACE

B1: recombinant caspase 3: Recombinant caspase 3 purchased from Pharmingen (protein)
chain: SGISLDNSYKMDYPEMGLCIIINNKNFHKSTGMTSRSGTDVDAANLRETFRNLKYEVRNKNDLTREEIVELMRDVSKEDHSKRSSFVCVLLSHGEEGIIFGTNGPVDLKKITNFFRGDRCRSLTGKPKLFIIQACRGTELDCGIETDSGVDDDMACHKIPVEADFLYAYSTAPGYYSWRNSKDGSWFIQSLCAMLKQYADKLEFMHILTRVNRKVATEFESFSFDATFHAKKQIPCIVSMLTKELYFYH
- cleavage of in vitro translated GGA3 (cold methionine), Western blot (GGA3 [8]): three major fragments

B2: GGA3DN: HA-tagged GGA3 N-terminal fragment 1-313 mimicking the N-terminal caspase-derived fragment generated by cleavage at D313 (protein, UniProt Q9NZ52 1-313, looked up, fragment)
chain: MAEAEGESLESWLNKATNPSNRQEDWEYIIGFCDQINKELEGPQIAVRLLAHKIQSPQEWEALQALTVLEACMKNCGRRFHNEVGKFRFLNELIKVVSPKYLGDRVSEKVKTKVIELLYSWTMALPEEAKIKDAYHMLKRQGIVQSDPPIPVDRTLIPSPPPRPKNPVFDDEEKSKLLAKLLKSKNPDDLQEANKLIKSMVKEDEARIQKVTKRLHTLEEVNNNVRLLSEMLLHYSQEDSSDGDRELMKELFDQCENKRRTLFKLASETEDNDNSLGDILQASDNLSRVINSYKTIIEGQVINGEVATLTLPD
modifications: HA tag
notes: HA-tagged GGA3 N-terminal fragment 1-313 mimicking the N-terminal caspase-derived fragment generated by cleavage at D313
- levels of secreted Aβ40 (Aβ40): the increase was not statistically significant
- BACE levels compared to vector alone or GGA3 (BACE [9]): BACE levels were increased
